Data set [1] in a line: Metabolic stability with human liver microsomes. Further: tested at 200 µM. Type of data set: in vitro ADME. As to conditions: after 1 h of incubation with human liver microsomes, 37 °C, NADPH. As to the method:
Human liver microsome (20 mg/mL) 6.25 µL, nicotinamide adenine dinucleotide phosphate (NADPH) (0.75 µmol), MgCl2 (0.75 µmol), and the test compound (0.05 µmol) were added into a potassium phosphate buffer (pH 7.4) with 250 µL of final volume. The incubation was carried out aerobically at 37 °C. The mixture was pre-incubated without NADPH for 10 min at 37 °C and NADPH was added to start the reaction. At 1 h after the start of the reaction, an aliquot (50 µL) of the incubation mixture was taken from each incubation and mixed with 150 µL of ice-cold acetonitrile to terminate the reaction. Subsequently, the sample was centrifuged (12,000 rpm) at room temperature. The resulting supernatant was filtered and analyzed using HPLC (LC, Agilent 1200; column, HC-C18(2); column temperature, 25 °C; mobile phase, solvent A, methanol, solvent B, water; gradient elution, 30–99% solvent A; flow rate, 1 mL/min; UV signals were recorded at 254 nm).

The next data set deals with H460 cells. In words: [3H]-mitoxantrone accumulation assay, H460. The format is cell-based, human. The conditions noted are these: parental H460 cells; compound 5 μM; Figure 6A. As to the method: (§1) To determine the accumulation of drugs on H460, H460/MX20, KB-3-1, and KB-C2 cells, the cells ([…] cells/well) were seeded in the 24-well plates and incubated at 37 °C with 5% CO2 [17]. After 12 h of incubation, a test compound (5 µM) was added and the plates were incubated at 37 °C for 2 h. Cells were then incubated with 0.01 µM [^3H]-MX or [^3H]-paclitaxel-containing medium for an additional 2 h at 37 °C, with or without a test compound. The cells were washed twice with ice-cold phosphate-buffered saline (PBS), trypsinized and lysed at the end of incubation. The radioactivity was measured using the Packard TRICARB1 1900A liquid scintillation analyzer.

For data set [2], the system named is BCRP-overexpressing H460/MX20 cells. In words: [3H]-mitoxantrone accumulation assay, H460/MX20. Type of data set: cell-based, human. As to conditions: resistant H460/MX20 cells; compound 5 μM; Figure 6A. The procedure: as §1
The test system of another data set is KB-3-1 cells. Description: [3H]-paclitaxel accumulation assay, KB-3-1. The format is cell-based, human. As to conditions: parental cells KB-3-1; compound 5 μM; Figure 6B. As to the method: as §1
The next data set deals with KB-C2 cells. In words: [3H]-paclitaxel accumulation assay, KB-C2. Type of data set: cell-based, human. The conditions noted are these: resistant cell line KB-C2; compound 5 μM; Figure 6B. The procedure:
as §1

For data set [3], the system named is P-gp localization in KB-C2 cells. Description: Immunofluorescence assay of P-gp localization in KB-C2 cells. Type of data set: cell-based, human. The conditions noted are these: Figure 8B. As to the method:
For immunofluorescence analysis, parental and drug-resistant cells were seeded in 24-well plates at 10,000–20,000 cells/well and incubated for 24 h. The cells were incubated with or without cyclopropyl quinazolinamine 22 or azide quinazolinamine 33 for 24 h, 48 h, and 72 h. Thereafter, cells were washed with PBS and fixed with 4% paraformaldehyde for 10 min at room temperature and then rinsed with PBS twice, followed by permeabilization with 1% Triton X-100 for 10 min at 4 °C. The cells were again washed twice with PBS, and then blocked with 6% BSA for 1 h at 37 °C. Fixed cells were incubated with monoclonal antibody against the BCRP protein (BXP 21) (Sigma-Aldrich, Inc., St. Louis, MO) (1:1000) or P-gp (F4) (Sigma-Aldrich, Inc., St. Louis, MO, USA) overnight at 4 °C, followed by two washes with PBS. The cells were then further incubated with Alexa flour 488 goat anti-mouse IgG (1:1000) (Abcam plc.) for 2 h at 37 °C. After the cells were washed twice with PBS, 4′,6-diamidino-2-phenylindole (DAPI) (2 µg/mL) was used for nuclear counterstaining. The immunofluorescence images were generated using a Nikon TE-2000S fluorescence microscope (Nikon Instruments Inc, Melville, NY, USA).

In the next data set the target is T1, P-gp ATPase (Homo sapiens, UniProt P08183).
T1 construct: host or cells: High Five insect cells (membrane vesicles)
T1 sequence (P08183 whole entry): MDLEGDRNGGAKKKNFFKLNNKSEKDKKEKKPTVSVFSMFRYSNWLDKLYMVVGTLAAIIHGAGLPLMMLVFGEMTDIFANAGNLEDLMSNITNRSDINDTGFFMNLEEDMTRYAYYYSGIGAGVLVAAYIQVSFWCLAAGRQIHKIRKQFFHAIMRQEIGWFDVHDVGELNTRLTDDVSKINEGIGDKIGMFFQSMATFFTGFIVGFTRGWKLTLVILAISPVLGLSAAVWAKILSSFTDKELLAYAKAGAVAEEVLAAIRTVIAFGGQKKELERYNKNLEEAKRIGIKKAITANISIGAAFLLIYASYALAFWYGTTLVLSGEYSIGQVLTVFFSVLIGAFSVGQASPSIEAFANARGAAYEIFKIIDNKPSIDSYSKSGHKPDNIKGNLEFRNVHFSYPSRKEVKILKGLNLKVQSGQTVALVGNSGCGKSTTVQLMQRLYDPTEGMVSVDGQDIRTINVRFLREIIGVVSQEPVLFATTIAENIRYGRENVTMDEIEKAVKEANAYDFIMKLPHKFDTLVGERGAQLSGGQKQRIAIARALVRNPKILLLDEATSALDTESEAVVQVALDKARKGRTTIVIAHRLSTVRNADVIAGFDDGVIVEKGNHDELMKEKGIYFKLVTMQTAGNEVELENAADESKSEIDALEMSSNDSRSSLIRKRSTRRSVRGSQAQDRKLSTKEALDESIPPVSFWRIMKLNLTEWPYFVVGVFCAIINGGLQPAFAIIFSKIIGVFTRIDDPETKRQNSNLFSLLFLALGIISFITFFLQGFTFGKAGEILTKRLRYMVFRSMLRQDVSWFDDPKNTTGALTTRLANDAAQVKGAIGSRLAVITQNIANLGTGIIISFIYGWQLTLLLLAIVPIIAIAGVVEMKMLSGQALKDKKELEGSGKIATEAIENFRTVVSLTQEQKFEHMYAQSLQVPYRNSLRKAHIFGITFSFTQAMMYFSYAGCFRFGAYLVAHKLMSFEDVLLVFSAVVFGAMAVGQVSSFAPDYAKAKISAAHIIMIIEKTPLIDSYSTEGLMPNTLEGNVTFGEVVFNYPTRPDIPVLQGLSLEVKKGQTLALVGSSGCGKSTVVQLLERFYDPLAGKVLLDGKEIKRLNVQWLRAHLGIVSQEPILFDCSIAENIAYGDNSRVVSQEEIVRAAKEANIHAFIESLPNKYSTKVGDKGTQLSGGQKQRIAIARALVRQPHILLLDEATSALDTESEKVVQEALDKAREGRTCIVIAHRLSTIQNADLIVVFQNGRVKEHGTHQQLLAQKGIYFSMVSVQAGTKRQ
In words: Vanadate-sensitive P-gp ATPase assay. The format is biochemical. As to conditions: membrane vesicles of High Five insect cells; Figure 10C. As to the method:
The vanadate (Vi)-sensitive ATPase activity of BCRP and P-gp in the membrane vesicles of High Five insect cells was measured as described previously. The results were presented as vanadate-sensitive ATPase activities by determining the difference in inorganic phosphate liberation measured in the presence and absence of sodium orthovanadate.

Structures are written as SMILES. Where “and” joins values, the source holds several entries; their conditions need not be identical. Identical values can stand only once.

Consider `c1ccc2c(Nc3ccc(C4CC4)cc3)nc(-c3ccncc3)nc2c1` [Compound 22, N-(4-Cyclopropylphenyl)-2-(pyridin-4-yl)quinazolin-4-amine], for which the “Metabolic Stability, % compound remaining” value in data set [1] was 92% and 92 ± 8%. For the same compound, the accumulation of mitoxantrone entry with H460 cells is given as “slightly increase”; in data set [2] it was “increased the accumulation”. Moreover, the values for the accumulation of paclitaxel result in the data set with KB-3-1 cells and with KB-C2 cells were “did not increase” and “significantly increased”, respectively. Also, the “P-gp fluorescence on the membranes” value in data set [3] (5 μM at 72 h) is given as “decreased slightly”; in data set [3] (5 μM for 24 and 48 h), “did not decrease significantly”. The “effect on Vi-sensitive P-gp ATPase activity” value at P-gp ATPase is on record as “neither stimulate or inhibit”.

Source of the values: article PMC9953095, “Design, Synthesis and Biological Evaluation of Quinazolinamine Derivatives as Breast Cancer Resistance Protein and P-Glycoprotein Inhibitors with Improved Metabolic Stability” (Biomolecules, 2023).
